Legend:
AQP4 = AQP4 mRNA expression in RMG cells (Example 2); assay type: cell-based
From the text: We have performed several experiments.

ENaC-α = ENaC-α immunolocalization in retina of aldosterone-injected eyes; assay type: in vivo, Lewis rats; conditions: aldosterone-injected vs saline-injected eyes
Experimental: Anesthesia of rats was induced by intramuscular injection of ketamine (100 mg/kg, Virbac, Carros, France) and chlorpromazine (0.65 mg/kg, LARGACTIL®, Sanofi Aventis, Livron sur Drome, France). Intravitreous injections were performed using microfine (300 μl) syringes with 30 G needles under topical anesthesia (tetracaine 1%, Aldrich, Lyon, France). Rat eyes were injected with 5 μl aldosterone diluted in 0.9% saline to obtain a concentration of 200 nM for injection, corresponding to a final concentration of 20 nM in the vitreous. Control rat eyes were injected with 5 μl saline. Twenty-four hrs after injection, rats were sacrificed. Eyes were then removed for retinal flat mounting, immunohistochemistry and morphological analysis respectively.
Eyes were snap frozen in Tissue-Tek OCT-compound (Bayer Diagnostics, Puteaux, France). Ten μm cryostat sections of rat eyes were fixed in 4% PFA for 15 min and permeabilized with 0.1% Triton X-I00 for 30 min. Unspecific binding sites were blocked with 5% normal goat serum for 1 hr. The sections were then incubated with primary antibodies for 1 hr at room temperature, washed in PBS, and further incubated with secondary antibodies for 1 hr. […] Images were taken using a fluorescence microscope (Olympus BX51, Rungis, France) equipped with a CCD camera (Olympus DP70). […]

aquaporin 1 = test: Aquaporin 1 expression after exposure to aldosterone; conditions: normal rat, 24 hours exposure, low aldosterone dose (1-10 nM)

Question: For `C[C@]12CCC(=O)C=C1CC[C@@H]1[C@@H]2[C@@H](O)C[C@]2(C=O)[C@@H](C(=O)CO)CC[C@@H]12` [aldosterone], which “expression of the water channel AQP4” value (AQP4) is on record?
Answer: up-regulates

Question: What about the “ENaC-α expression intensity and number of expressing cells in retina” value (ENaC-α) of the same compound?
Answer: increased in the INL

Question: What about the “expression of aquaporin 1” value (aquaporin 1) of the same compound?
Answer: reduces

Source: patent US9610294B2, “Methods and compositions for the treatment of fluid accumulation in and/or under the retina” (UNIVERSITE PARIS DESCARTES, priority 2010, dated 2017)
